Assay results taken from PMC10907609, “Structural and functional characterization of the endogenous agonist for orphan receptor GPR3” (Cell Research, 2024).

Columns and labels:
GPR3 [1] = target: T1, GPR3 (Homo sapiens, UniProt P46089); assay: cryo-EM structure ([…] Å), SPR, MS of co-purified ligand; GTP turnover on purified complex; EC50 from cell-based cAMP Glo-Sensor assay; parameters: GPR3–Gs–scFv16 complex; with Gs heterotrimer (scFv16-stabilised)
Target sequence in this assay (P46089 whole entry): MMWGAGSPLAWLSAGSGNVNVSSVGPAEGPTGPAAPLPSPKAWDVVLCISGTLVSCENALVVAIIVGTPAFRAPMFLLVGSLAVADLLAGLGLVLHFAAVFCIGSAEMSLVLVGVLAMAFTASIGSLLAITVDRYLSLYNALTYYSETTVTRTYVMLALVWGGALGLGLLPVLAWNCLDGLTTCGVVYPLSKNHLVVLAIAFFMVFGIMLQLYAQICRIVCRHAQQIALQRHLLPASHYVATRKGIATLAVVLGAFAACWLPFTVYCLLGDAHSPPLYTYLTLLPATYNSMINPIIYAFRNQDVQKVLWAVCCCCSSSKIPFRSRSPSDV
Target sequence in this assay (P63092 2-394 partner): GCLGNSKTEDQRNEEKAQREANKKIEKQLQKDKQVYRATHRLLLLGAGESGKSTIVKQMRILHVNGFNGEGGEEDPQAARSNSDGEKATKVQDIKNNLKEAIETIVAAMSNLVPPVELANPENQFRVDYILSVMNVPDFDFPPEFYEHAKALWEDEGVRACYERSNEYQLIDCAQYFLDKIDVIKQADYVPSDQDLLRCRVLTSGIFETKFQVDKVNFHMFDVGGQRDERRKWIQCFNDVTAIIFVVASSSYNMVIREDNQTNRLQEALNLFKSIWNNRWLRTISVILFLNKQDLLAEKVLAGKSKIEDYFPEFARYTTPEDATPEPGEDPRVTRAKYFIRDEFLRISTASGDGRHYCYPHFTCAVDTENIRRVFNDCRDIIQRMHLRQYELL
Target sequence in this assay (P62873 2-340 partner): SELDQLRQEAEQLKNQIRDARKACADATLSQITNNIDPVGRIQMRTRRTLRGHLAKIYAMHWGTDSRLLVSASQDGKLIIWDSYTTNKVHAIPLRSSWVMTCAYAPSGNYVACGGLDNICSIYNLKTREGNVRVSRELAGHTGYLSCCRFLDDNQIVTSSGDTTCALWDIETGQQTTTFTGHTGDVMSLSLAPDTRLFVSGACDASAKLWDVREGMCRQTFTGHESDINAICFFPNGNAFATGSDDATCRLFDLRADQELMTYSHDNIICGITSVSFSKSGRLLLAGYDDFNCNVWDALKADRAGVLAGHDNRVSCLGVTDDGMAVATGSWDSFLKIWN
Target sequence in this assay (P59768 2-68 partner): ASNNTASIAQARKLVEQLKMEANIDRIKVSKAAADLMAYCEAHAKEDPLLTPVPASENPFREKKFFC

GPR3 [2] = target: T1, GPR3; assay: cell-based cAMP Glo-Sensor assay (no significant activity in purified GTP turnover assay)
Target sequence in this assay (P46089 whole entry): as the sequence (P46089 whole entry) above

## CCCCCCCC/C=C\CCCCCCCC(=O)NCCO [OEA, oleoylethanolamide]
GPR3 [1]
  EC50: 2.5 µM

## CCCCCCCC/C=C\CCCCCCCC(N)=O [oleamide]
GPR3 [2]
  EC50: 5.6 µM
